Measurements reported in ChEMBL document CHEMBL2303647, “Data associated with the publication PLoS ONE, 8(3), e57888, (2013) PMID: 23505445. Compounds: GSK PKIS; Assays: NIH NCATS”.

Key:
[1] = target: Luciferin 4-monooxygenase (Photinus pyralis, UniProt P08659)
Description: GSK_PKIS: Inhibition of Firefly Luciferase (Data from PubChem: AID 652016) [NIH NCATS]

[2] = target: T1, Coelenterazine h 2-monooxygenase (Renilla reniformis, UniProt P27652)
T1 sequence (P27652 whole entry): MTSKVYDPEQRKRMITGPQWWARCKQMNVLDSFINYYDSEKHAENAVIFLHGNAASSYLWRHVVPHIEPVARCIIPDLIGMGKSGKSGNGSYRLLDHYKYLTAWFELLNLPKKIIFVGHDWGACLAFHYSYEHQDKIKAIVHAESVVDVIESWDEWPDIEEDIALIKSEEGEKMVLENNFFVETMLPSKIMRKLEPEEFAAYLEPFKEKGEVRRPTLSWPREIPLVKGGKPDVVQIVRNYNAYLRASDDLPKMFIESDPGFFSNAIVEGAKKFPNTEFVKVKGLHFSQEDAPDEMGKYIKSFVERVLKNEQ
Description: GSK_PKIS: Inhibition of Sea Pansy Luciferase (Data from PubChem: AID 652015) [NIH NCATS]

Chain of Luciferin 4-monooxygenase (P08659 whole entry): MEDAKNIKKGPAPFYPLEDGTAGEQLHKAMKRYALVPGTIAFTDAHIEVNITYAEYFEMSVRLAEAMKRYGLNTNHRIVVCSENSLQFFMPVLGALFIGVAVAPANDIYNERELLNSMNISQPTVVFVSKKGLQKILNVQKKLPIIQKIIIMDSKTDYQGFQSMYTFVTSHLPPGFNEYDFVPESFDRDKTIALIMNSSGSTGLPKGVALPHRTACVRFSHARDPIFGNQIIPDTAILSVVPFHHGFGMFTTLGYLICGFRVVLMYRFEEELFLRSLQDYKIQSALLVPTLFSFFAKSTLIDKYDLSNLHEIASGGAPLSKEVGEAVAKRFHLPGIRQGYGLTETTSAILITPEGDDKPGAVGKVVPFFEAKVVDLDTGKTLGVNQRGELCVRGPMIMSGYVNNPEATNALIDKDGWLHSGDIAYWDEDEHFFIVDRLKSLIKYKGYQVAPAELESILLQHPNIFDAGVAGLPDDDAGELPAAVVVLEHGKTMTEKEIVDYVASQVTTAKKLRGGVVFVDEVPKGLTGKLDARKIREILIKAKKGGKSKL

`Nc1ncnc2occ(-c3ccc(NC(=O)Nc4cccc(C(F)(F)F)c4)cc3)c12` [GW795493X] was tested, and the AC50 [1] was “Phenotype: Inactive; Curve_Description: None” and the AC50 [2] was “Phenotype: Inactive; Curve_Description: None”.

With `CN(C)CCCNc1nccc(-c2c(-c3ccc(F)cc3)nn3cc(C(F)(F)F)ccc23)n1.CS(=O)(=O)O` [GW618013A] the AC50 ([1]; read-out: AC50) was 41.1 µM and the AC50 [2] was “Phenotype: Inactive; Curve_Description: None”.

`CNC(=O)c1cncc(/C=C/c2ccccc2Cl)c1` [GW445017X] was tested, and the AC50 ([1]; read-out: AC50) was 9.19 µM and the AC50 [2] was “Phenotype: Inactive; Curve_Description: None”.

`COC(=O)c1cncc(/C=C/c2c(C)cc(O)cc2C)c1` [GW406731X] was tested, and the AC50 [1] was “Phenotype: Inactive; Curve_Description: None” and the AC50 [2] was “Phenotype: Inactive; Curve_Description: None”.

With `CNC(=O)c1ncccc1Nc1nc(Nc2cc3c(cc2OC)CCCN3C(=O)CN(C)C)nc2[nH]ccc12` [GSK-2220400A] the AC50 [1] was “Phenotype: Inactive; Curve_Description: None” and the AC50 [2] was “Phenotype: Activator; Curve_Description: None”.

In the case of `NC(=O)c1cc(-c2ccncc2)cc(-c2ccccc2)c1N` [GSK-625137A], the AC50 ([1]; read-out: AC50) was 41.1 µM and the AC50 [2] was “Phenotype: Inactive; Curve_Description: None”.

For `CCn1c(-c2nonc2N)nc2c(C#CC(C)(C)O)ncc(OC[C@@H]3CCCN3)c21.O=C(O)C(F)(F)F` [GSK-614526A], the AC50 [1] was “Phenotype: Inactive; Curve_Description: None” and the AC50 ([2]; read-out: AC50) was 18.3 µM.

In the case of `O=C(O)/C=C/C(=O)O.OCCCNc1nccc(-c2c(-c3ccc(F)cc3)nn3cc(C(F)(F)F)ccc23)n1` [GW569293E], the AC50 ([1]; read-out: AC50) was 32.6 µM and the AC50 [2] was “Phenotype: Inactive; Curve_Description: None”.

In the case of `NS(=O)(=O)c1cccc(N/C=C2\C(=O)Nc3ccccc32)c1` [GW275616X], the AC50 ([1]; read-out: AC50) was 18.3 µM and the AC50 [2] was “Phenotype: Inactive; Curve_Description: None”.

For `CCn1c(-c2nonc2N)nc2c(C#CCN)ncc(OCCCN)c21.O=C(O)C(F)(F)F` [GSK-561866B], the AC50 [1] was “Phenotype: Inactive; Curve_Description: None” and the AC50 ([2]; read-out: AC50) was 23.1 µM.

In the case of `Cc1ccc(NC(=O)c2ccnc(N3CCCC3)c2)cc1-c1ccc(C(=O)NCC2CC2)cc1` [GW769076X], the AC50 [1] was “Phenotype: Inactive; Curve_Description: None” and the AC50 ([2]; read-out: AC50) was 29.1 µM.

In the case of `CCS(=O)(=O)c1ccc(OC)c(Nc2ncc(-c3ccccc3Cl)o2)c1` [GW622055X], the AC50 [1] was “Phenotype: Inactive; Curve_Description: None” and the AC50 ([2]; read-out: AC50) was 18.3 µM.

With `NS(=O)(=O)c1ccc(N/N=C2\C(=O)Nc3ccc(C(=O)NCCCn4ccnc4)cc32)cc1` [GW290597X] the AC50 [1] was “Phenotype: Inactive; Curve_Description: None” and the AC50 ([2]; read-out: AC50) was 18.3 µM.

With `CNC(=O)c1cncc(/C=C/c2ccccc2C)c1` [GW445015X] the AC50 [1] was “Phenotype: Inactive; Curve_Description: None” and the AC50 [2] was “Phenotype: Inactive; Curve_Description: None”.

For `CC(=O)Nc1cccc(C#Cc2cncnc2Nc2ccc(OCc3cccc(F)c3)c(Cl)c2)c1` [GW703087X], the AC50 [1] was “Phenotype: Inactive; Curve_Description: None” and the AC50 [2] was “Phenotype: Inactive; Curve_Description: None”.

In the case of `Cc1nc(-c2ccccc2)n2nc(NCCCN3CCOCC3)ncc12` [GW874091X], the AC50 [1] was “Phenotype: Inactive; Curve_Description: None” and the AC50 [2] was “Phenotype: Inactive; Curve_Description: None”.

With `Fc1ccc(-c2cc(-c3c[nH]nc3-c3ccccn3)ccn2)cc1` [GW680975X] the AC50 [1] was “Phenotype: Inactive; Curve_Description: None” and the AC50 [2] was “Phenotype: Inactive; Curve_Description: None”.

With `CN(C)CCNC(=O)Nc1ccc(N(C)c2ccnc(Nc3ccc(CS(C)(=O)=O)cc3)n2)cc1.Cl` [GW830900A] the AC50 ([1]; read-out: AC50) was 29.1 µM and the AC50 [2] was “Phenotype: Inactive; Curve_Description: None”.

Compound `COc1cc(N2CCN(C(C)C)CC2)ccc1Nc1nc(Nc2ccc(F)cc2C(N)=O)c2cc[nH]c2n1` [GSK-1220512A] has an AC50 ([1]; read-out: AC50) of 25.9 µM and an AC50 ([2]; read-out: AC50) of 20.6 µM.

For `Cl.Fc1cccc(COc2ccc(Nc3ncnc4cc(-c5ccc[nH]5)sc34)cc2Cl)c1` [GW693881A], the AC50 [1] was “Phenotype: Inactive; Curve_Description: None” and the AC50 [2] was “Phenotype: Inactive; Curve_Description: None”.

Compound `COC(=O)c1ccc2c(c1)C(=Cc1cc(Br)c(O)c(Br)c1)C(=O)N2` [GW405841X] has an AC50 ([1]; read-out: AC50) of 20.6 µM and an AC50 ([2]; read-out: AC50) of 13 µM.

For `COc1cc(/C=N/Nc2ncnc3c2cnn3C(C)C)ccc1O` [GW644007X], the AC50 ([1]; read-out: AC50) was 5.8 µM and the AC50 [2] was “Phenotype: Inactive; Curve_Description: None”.

`Cc1cc(Cl)cc2c1NC(=O)C2=NNc1ccc(S(N)(=O)=O)cc1` [GW279320X] was tested, and the AC50 [1] was “Phenotype: Inactive; Curve_Description: None” and the AC50 ([2]; read-out: AC50) was 29.1 µM.

In the case of `CN1CCN(C(=O)c2ccc(NC(=O)Nc3ccc(N(C)c4ccnc(Nc5ccc(CS(C)(=O)=O)cc5)n4)cc3)cc2)CC1.Cl` [GW830263A], the AC50 ([1]; read-out: AC50) was 9.19 µM and the AC50 [2] was “Phenotype: Inactive; Curve_Description: None”.

In the case of `COc1cccc(-n2cnc3c(N/N=C/c4ccncc4)ncnc32)c1` [GW813360X], the AC50 ([1]; read-out: AC50) was 16.3 µM and the AC50 [2] was “Phenotype: Inactive; Curve_Description: None”.

In the case of `COC(=O)Nc1nc2cc(Oc3ccc(NC(=O)Nc4ccccc4)cc3)ccc2[nH]1.Cl` [GW694590A], the AC50 ([1]; read-out: AC50) was 14.6 µM and the AC50 [2] was “Phenotype: Inactive; Curve_Description: None”.

For `CC1=C(C(=O)Nc2cc(Cl)c3[nH]ncc3c2)C(c2ccc(C(F)(F)F)cc2)CC(=O)N1` (stereo not drawn) [GSK-466317A], the AC50 [1] was “Phenotype: Inactive; Curve_Description: None” and the AC50 [2] was “Phenotype: Inactive; Curve_Description: None”.

With `COc1cc(Nc2ncc3c(C)nc(-c4cccc(Oc5ccccc5)c4)n3n2)cc(OC)c1OC` [GW861893X] the AC50 [1] was “Phenotype: Inactive; Curve_Description: None” and the AC50 [2] was “Phenotype: Inactive; Curve_Description: None”.

`O=C1Nc2ccc(-c3cccnc3)cc2C1=Cc1cc(Br)c(O)c(Br)c1` [GW429374A] showed an AC50 ([1]; read-out: AC50) of 32.6 µM and an AC50 ([2]; read-out: AC50) of 18.3 µM.

With `Cn1c(-c2nonc2N)nc2cnccc21` the AC50 [1] was “Phenotype: Inactive; Curve_Description: None” and the AC50 [2] was “Phenotype: Inactive; Curve_Description: None”.

In the case of `CCNC(=O)O[C@H]1CN[C@H](C#Cc2cc3ncnc(Nc4ccc(OCc5cccc(F)c5)c(Cl)c4)c3s2)C1` [GSK-192082A], the AC50 [1] was “Phenotype: Inactive; Curve_Description: None” and the AC50 [2] was “Phenotype: Inactive; Curve_Description: None”.

`CN(C)c1ccc2c(c1)/C(=C/Nc1ccc(S(N)(=O)=O)cc1)C(=O)N2` [GW416469X] was tested, and the AC50 [1] was “Phenotype: Inactive; Curve_Description: None” and the AC50 ([2]; read-out: AC50) was 5.8 µM.

With `CC(C)c1ccc2c(c1)NC(=O)/C2=N/Nc1ccc(S(N)(=O)=O)cc1` [GW300653X] the AC50 [1] was “Phenotype: Inactive; Curve_Description: None” and the AC50 [2] was “Phenotype: Inactive; Curve_Description: None”.

For `CN1CCC(C(=O)Nc2n[nH]c3nc(-c4ccc(O)cc4)c(Br)cc23)CC1.O=C(O)/C=C\C(=O)O`, the AC50 [1] was “Phenotype: Inactive; Curve_Description: None” and the AC50 [2] was “Phenotype: Inactive; Curve_Description: None”.

`CN(C)CCOc1ccc(-c2nc(-c3ccncc3)c(-c3ccc4c(c3)CC/C4=N\O)[nH]2)cc1` showed an AC50 ([1]; read-out: AC50) of 14.6 µM and an AC50 ([2]; read-out: AC50) of 29.1 µM.

For `CC1=C(C(=O)Nc2ccc3[nH]ncc3c2)C(c2ccc(F)cc2)N=C(c2ccc(C(F)(F)F)nc2)N1` (stereo not drawn) [GSK-317354A], the AC50 ([1]; read-out: AC50) was 41.1 µM and the AC50 [2] was “Phenotype: Activator; Curve_Description: None”.

In the case of `NS(=O)(=O)c1ccc(-c2ccc3c(NC(=O)C4CC4)n[nH]c3c2)cc1`, the AC50 [1] was “Phenotype: Inactive; Curve_Description: None” and the AC50 [2] was “Phenotype: Inactive; Curve_Description: None”.

`COc1cc2ncn(-c3cc(OCCc4ccccc4)c(C(N)=O)s3)c2cc1OC` [GSK-204925A] was tested, and the AC50 [1] was “Phenotype: Inactive; Curve_Description: None” and the AC50 [2] was “Phenotype: Inactive; Curve_Description: None”.

In the case of `CC(C)COC(=O)c1ccc2c(c1)/C(=C/Nc1ccc(S(N)(=O)=O)cc1)C(=O)N2` [GW416981X], the AC50 [1] was “Phenotype: Inactive; Curve_Description: None” and the AC50 [2] was “Phenotype: Inactive; Curve_Description: None”.

With `COC(=O)Nc1nc2ccc(Sc3ccc(NC(=O)Nc4cc(C(F)(F)F)ccc4F)cc3)cc2[nH]1.O=S(=O)(O)O` [GW607049C] the AC50 [1] was “Phenotype: Inactive; Curve_Description: None” and the AC50 ([2]; read-out: AC50) was 0.0006 µM.

With `NS(=O)(=O)c1ccc(NC=C2C(=O)Nc3ccc4ncsc4c32)cc1` [GW589933X] the AC50 [1] was “Phenotype: Inactive; Curve_Description: None” and the AC50 ([2]; read-out: AC50) was 16.3 µM.

Work on `CNC(=O)c1cncc(/C=C/c2c(Cl)cccc2Cl)c1` [GW445014X] yielded an AC50 ([1]; read-out: AC50) of 16.3 µM and an AC50 ([2]; read-out: AC50) of 23.1 µM.

In the case of `COc1cccc(-n2ncc3c(N/N=C/c4ccncc4)ncnc32)c1` [GW784752X], the AC50 ([1]; read-out: AC50) was 6.51 µM and the AC50 [2] was “Phenotype: Activator; Curve_Description: None”.

In the case of `N#Cc1c(NC(=O)CN2CCOCC2)sc2c1CCCC2.O=C(O)C(=O)O`, the AC50 [1] was “Phenotype: Inactive; Curve_Description: None” and the AC50 [2] was “Phenotype: Inactive; Curve_Description: None”.

`CNC(=O)c1sc(-n2cnc3cc(OC)c(OC)cc32)cc1OCc1ccccc1C(F)(F)F` [GSK-1030061A] was tested, and the AC50 [1] was “Phenotype: Inactive; Curve_Description: None” and the AC50 [2] was “Phenotype: Inactive; Curve_Description: None”.

With `CS(=O)(=O)CCNCc1cc(-c2cc3c(Nc4ccc(OCc5cccc(F)c5)c(Cl)c4)ncnc3s2)cs1` [GSK-300014A] the AC50 [1] was “Phenotype: Inactive; Curve_Description: None” and the AC50 [2] was “Phenotype: Activator; Curve_Description: None”.

`CS(=O)(=O)CCNCc1nc(-c2ccc3ncnc(Nc4ccc(OCc5cccc(C(F)(F)F)c5)cc4)c3c2)cs1.Cl` [GW569530A] was tested, and the AC50 [1] was “Phenotype: Inactive; Curve_Description: None” and the AC50 [2] was “Phenotype: Inactive; Curve_Description: None”.

`Cl.O=C(Nc1ccc(Oc2ccc3[nH]c(NC(=O)c4ccco4)nc3c2)cc1)Nc1cc(C(F)(F)F)ccc1F` [GW683134A] was tested, and the AC50 ([1]; read-out: AC50) was 20.6 µM and the AC50 [2] was “Phenotype: Inactive; Curve_Description: None”.

With `Cc1ccc(C(=O)NC2CCCCC2)cc1-c1ccc(C(=O)NCC2CC2)cc1` [GW782907X] the AC50 [1] was “Phenotype: Inactive; Curve_Description: None” and the AC50 [2] was “Phenotype: Inactive; Curve_Description: None”.
